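Values below derive from 48-hour exposures of cells grown in 96-well plates, with endpoints linearly interpolated between the two concentrations bracketing the appropriate inhibition level. GI50 marks 50% less growth. The concentration for full growth arrest is given as TGI.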
Assays:
Test in all cases: growth of human tumour cells (NCI), 48 h
[1] = system: HS 578T breast
[2] = system: CAKI-1 renal
[3] = system: SF-268 CNS
[4] = system: SNB-75 CNS
[5] = system: NCI/ADR-RES ovarian
[6] = system: T-47D breast
[7] = system: PC-3 prostate
[8] = system: SW-620 colon
[9] = system: SNB-19 CNS
[10] = system: COLO 205 colon

| SMILES | TGI [1] [µM] | TGI [2] [µM] | TGI [3] [µM] | TGI [4] [µM] | TGI [5] [µM] | TGI [6] [µM] | TGI [7] [µM] | TGI [8] [µM] | TGI [9] [µM] | TGI [10] [µM] | GI50 [1] [µM] | GI50 [2] [µM] | GI50 [3] [µM] | GI50 [4] [µM] | GI50 [5] [µM] | GI50 [6] [µM] | GI50 [7] [µM] | GI50 [8] [µM] |
| --- | --- | --- | --- | --- | --- | --- | --- | --- | --- | --- | --- | --- | --- | --- | --- | --- | --- | --- |
| COc1cccc(NC(=O)CC(=O)NN)c1 | > 100 | > 100 | > 100 | > 100 | > 100 | > 100 | > 100 | > 100 | > 100 | > 100 | – | – | – | – | – | – | – | – |
| COC(=O)/C=C(C)/C=C\COC1CCCCO1 (configuration not stated) | > 100 | > 100 | > 100 | > 100 | > 100 | > 100 | > 100 | > 100 | > 100 | > 100 | – | – | – | – | – | – | – | – |
| Cc1ccc(C(=O)N/N=C(\N=Nc2ccc([N+](=O)[O-])cc2)c2ccc(N(CCC#N)CCC#N)cc2C)cc1 | > 100 | > 100 | > 100 | > 100 | > 100 | 83.4 | > 100 | > 100 | > 100 | > 100 | – | – | – | – | – | – | – | – |
| O=C(NNC(=O)c1ccco1)c1ccco1 | > 100 | > 100 | > 100 | > 100 | > 100 | > 100 | > 100 | > 100 | > 100 | > 100 | – | – | – | – | – | – | – | – |
| Nc1nc(N)c2nc(CN(C=O)c3ccc(C(=O)O)cc3)cnc2n1 | > 100 | > 100 | > 100 | > 100 | > 45.2 | > 100 | > 100 | > 100 | > 100 | > 100 | – | – | – | – | – | – | – | – |
| Cc1ccc(S(=O)(=O)OC[C@@]2(C)CC[C@]3(C)CC[C@]4(C)C(=C3C2)C=C[C@@H]2[C@@]3(C)CCCNC(C)(C)[C@@H]3CC[C@]24C)cc1 | 4.26 | 3.06 | 4.12 | 3.1 | 4.59 | 3.26 | 2.98 | 3.54 | – | – | 1.94 | 1.61 | 1.95 | 1.61 | 2.05 | 1.55 | 1.53 | 1.78 |
| Cc1ccc(S(=O)(=O)N/N=C2\C=CC3(CC2)C(=O)N(I)c2ccccc23)cc1 (configuration not stated) | – | > 100 | > 100 | > 100 | > 100 | > 100 | > 100 | > 100 | > 100 | > 100 | – | – | – | – | – | – | – | – |
| NC(=S)NNCC(=O)CC(O)(C(F)(F)F)C(F)(F)Cl (configuration not stated) | > 100 | > 100 | – | > 100 | > 100 | > 100 | > 100 | > 100 | > 100 | > 100 | – | – | – | – | – | – | – | – |
| C[N+](C)(CCNc1ccc(NCC[N+](C)(C)Cc2ccc([N+](=O)[O-])cc2)c2c1C(=O)c1c(O)ccc(O)c1C2=O)Cc1ccc([N+](=O)[O-])cc1 | > 50 | > 50 | > 50 | > 50 | > 50 | > 50 | > 50 | > 50 | – | > 50 | – | – | – | – | – | – | – | – |
| CN(C(=O)Cc1ccccc1)n1cn[n+](CC(=O)OC(C)(C)C)c1 | > 10 | > 10 | > 10 | – | > 10 | > 10 | > 10 | > 10 | > 10 | > 10 | – | – | – | – | – | – | – | – |
| CCOC(=O)c1ccc(N(CCOS(C)(=O)=O)CCOS(C)(=O)=O)cc1 | > 100 | 29.1 | > 100 | – | > 100 | > 100 | > 100 | > 100 | > 100 | > 100 | – | – | – | – | – | – | – | – |
| COC(=O)CN1CCN(c2cccc3c2CCCC3)CC1 | > 100 | > 100 | – | > 100 | > 100 | > 100 | > 100 | > 100 | > 100 | > 100 | – | – | – | – | – | – | – | – |
| O=C(/C=C/c1ccc(-c2ccccc2)cc1)NCc1ccc(C(=O)NCCc2ccccc2)cc1 | – | > 100 | > 100 | > 100 | > 100 | > 100 | > 100 | > 100 | > 100 | > 100 | – | – | – | – | – | – | – | – |
| Cc1ccc(/C=c2\cc3oc(=O)c4cccc(c4-3)c2=O)cc1 | – | > 100 | > 100 | > 100 | > 100 | > 100 | > 100 | > 100 | > 100 | > 100 | – | – | – | – | – | – | – | – |
| NC(Cc1ccccc1)C(=O)OCN1C(=O)C2C3C=CC(C2C1=O)C1C(=O)N(COC(=O)C(N)Cc2ccccc2)C(=O)C31 (configuration not stated) | > 100 | > 100 | > 100 | – | > 100 | > 100 | > 100 | 77.3 | > 100 | > 100 | – | – | – | – | – | – | – | – |
